Laboratory results taken from US5763443A, “MDR resistance treatment and novel pharmaceutically active riminophenazines” (priority 1994, dated 1998).
Values after ≈ are worked out from the molar mass of the structure shown. Values joined by “and” are separate entries in the source; they are usually repeats but may differ in a detail not shown here. Equal values may be shown once. Read-outs that look alike come from different tables or passages of the source.

What was measured:
H69/LX4 cells = assay: [14C]-vinblastine accumulation in MDR cell line; format: cell-based, human; details: 1 hour pretreatment, 30 minutes [14C]-vinblastine
Procedure: The effect of riminophenazines on the accumulation of [^14 C]-vinblastine was investigated. For these experiments, both of the above cell lines (H69/LX4 and H69/P) were prepared as described by Coley et al (Biochem. Pharmacal 38, 4467-4475 (1989)). After a 1 hour pretreatment with the MDR reversal agents, cells (1×10^6 /ml) were exposed to […] [^14 C]-vinblastine (1 μCi specific activity) for 30 minutes.

[1] = tested on: multi-drug resistant (MDR) lung carcinoma cell line H69/LX4; assay: in vitro; details: for IC50: Homo sapiens; for INCREASED SENSITIVITY H69/Lx4: Table VIII, values equal IC50 NONE / IC50 with VB 25 ng/ml of Table VII, 10080 min
Procedure: (§1) The riminophenazines of the above formula (I), contain an imino group. […] The potency of compounds of the above general formula, as inhibitors of multi-drug resistance, was assessed by sensitization of a P-glycoprotein positive cell line to drugs associated with this form of resistance. A human small cell lung cancer cell line H 69/P as well as a multi-drug resistance (MDR) sub-line H69/LX4 were used. These cell lines were obtained from the Medical Research Council Clinical Oncology and Radiotherapeutics Unit, Hills Road, Cambridge, England. The H69/LX4 line was selected in vitro by progressive exposure to increasing concentrations of doxorubicin in order to increase P-glycoprotein expression.
(§2) The cell lines used were human small cell lung cancer cell line HP69/P and a multi-drug resistant (MDR) sub-line H69/LX4, both of which were supplied by the MRC Clinical Oncology and Radiotherapeutics Unit, Hills Road, Cambridge, England. The maintenance of the cell lines and drug response assays was done as described by Twentyman et al in British Journal of Cancer Volume 65 pages 335-340. The H69/LX4 line was originally described by Twentyman et al in British Journal of Cancer Volume 53, pages 529-637 (1986).
(§3) The data in parenthesis represents fold sensitivity compared with the chemotherapeutic agent without the MDR inhibitor.
(§4) The results obtained, are illustrated graphically in FIGS. 4 to 7 of the accompanying drawings.
(§5) The general procedure set forth above was followed, i.e. 7 days incubation in the4 presence of doxorubicin at 12,5 ng/ml or vinblastine at 25 or 3 ng/ml.
(§6) The effects were examined over a seven (7) day exposure to different concentrations of B4119 and B4125 on the sensitivity of a doxorubicin resistant leukaemia cell line (K562/MMB) and a lung carcinoma cell line (H69/LX4) to doxorubicin (dox) and vinblastine (VB) using the MTT assay.

[2] = tested on: human small cell lung cancer cell line H69/P; assay: MTT assay, 7 day exposure, sensitivity of parent cell line H69/P to chemotherapeutic agents; format: cell-based; details: H69/P; CsA 5 μg/ml, clofazimine 1 μg/ml or B669 0.5 μg/ml
Procedure: as §1, §2, §3

[3] = tested on: MDR leukaemia cell line K562/MMB; assay: cells; details: for INCREASED SENSITIVITY K 562/MMB: Table VIII, values equal IC50 NONE / IC50 with VB 3 ng/ml of Table VII, 10080 min; for MDR activity / sensitivity against cell line K562/MMP: compared with known reference compound B4100
Procedure: A third cell line (562/MMB) used was a MDR leukemia cell line selected in vitro by progressive exposure to increasing concentrations of vinblastine in order to increase P-glycoprotein expression. This cell line was developed in the Department of Immunology, University of Pretoria from K562 (ATCC CCL 243) supplied by Highveld Biological (Pty) Ltd, Sandton.
as §5, §6

in vitro = details: human, h69/lx4 cells
Procedure: as §1, §2, §3, §4, §5, §6

[4] = bio-availability (no method given)
[5] = H69/LX4, CsA 5 μg/ml, clofazimine 1 μg/ml or B669 0.5 μg/ml
[6] = 168 h, read-out: IC 50 H69/Lx4 NONE
[7] = read-out: IC 50 H69/Lx4 DOX 12 ng/ml
[8] = read-out: IC 50 H69/Lx4 VB 25 ng/ml

Structure (SMILES): c1ccc(Nc2cc3nc4ccccc4n(-c4ccccc4)c-3cc2=NC2CCCCC2)cc1 [Compound B669]
- vinblastine accumulation in the MDR cell line (H69/LX4 cells): significant enhancement
- fold sensitivity to Cyclophosphamide compared with agent without MDR inhibitor [1, 5]: 1.1 fold
- fold sensitivity to Daunorubicin compared with agent without MDR inhibitor [1, 5]: 2.4 fold
- fold sensitivity to Doxorubicin compared with agent without MDR inhibitor [1, 5]: 6.9 fold
- fold sensitivity to Etoposide compared with agent without MDR inhibitor [1, 5]: 14.4 fold
- fold sensitivity to Methotrexate compared with agent without MDR inhibitor [1, 5]: 0.9 fold
- fold sensitivity to Mitomycin C compared with agent without MDR inhibitor [1, 5]: 2.5 fold
- fold sensitivity to Vinblastine compared with agent without MDR inhibitor [1, 5]: 13.7 fold and ~13 fold
- IC50 [1, 6]: 1 µg/mL (≈ 2.25 µM)
- IC50 [1, 7]: 0.996 µg/mL (≈ 2.24 µM)
- IC50 [1, 8]: 0.254 µg/mL (≈ 0.571 µM)
- INCREASED SENSITIVITY H69/Lx4 [1]: 3.94
- fold sensitivity to Cyclophosphamide compared with agent without MDR inhibitor [2]: 1.0 fold
- fold sensitivity to Daunorubicin compared with agent without MDR inhibitor [2]: 1.2 fold
- fold sensitivity to Doxorubicin compared with agent without MDR inhibitor [2]: 1.0 fold
- fold sensitivity to Etoposide compared with agent without MDR inhibitor [2]: 1.2 fold
- fold sensitivity to Methotrexate compared with agent without MDR inhibitor [2]: 1.0 fold
- fold sensitivity to Mitomycin C compared with agent without MDR inhibitor [2]: 0.7 fold
- fold sensitivity to Vinblastine compared with agent without MDR inhibitor [2]: 1.1 fold
- IC50 ([3]; Homo sapiens, K562, read-out: IC 50 K562/MMB VB 3 ng/ml, Table VII, with vinblastine 3 ng/ml): 0.023 µg/mL (≈ 0.0517 µM)
- INCREASED SENSITIVITY K 562/MMB [3]: 6.04
- MDR activity / sensitivity against cell line K562/MMP [3]: good activity

Structure (SMILES): CC1(C)CC(N=c2cc3n(-c4cc(Cl)c(Cl)c(Cl)c4)c4ccccc4nc-3cc2Nc2cc(Cl)c(Cl)c(Cl)c2)CC(C)(C)N1 [Compound B4169, N,5-bis(3,4,5-trichiorophenyl)-3,5-dihydro-3-[(2',2',6',6'-tetramethyl-4-piperidyl)-imino]-2-phenazinamine]
- MDR reversal properties ([1]; H69/LX4, with doxorubicin 12,5 ng/ml or vinblastine 25 ng/ml, FIGS. 4 to 7): Very good MDR reversal properties
- IC50 [1, 6]: 1.57 µg/mL (≈ 2.21 µM)
- IC50 [1, 7]: 1.08 µg/mL (≈ 1.53 µM)
- IC50 [1, 8]: 0.213 µg/mL (≈ 0.301 µM)
- INCREASED SENSITIVITY H69/Lx4 [1]: 7.36
- MNTC at 168 h (in vitro): > 12.5 µg/mL
- bio-availability [4]: good bio-availability
- INCREASED SENSITIVITY K 562/MMB [3]: 24.66
- MDR activity / sensitivity against cell line K562/MMP [3]: increased substantially and unexpectedly
